Reference: ChEMBL document CHEMBL3045657, “Synthesis and biological evaluation of naphthalene, furan and pyrrole based chalcones as cytotoxic and antimicrobial agents” (2012)
In brackets after ≈: the same amount, converted by molar mass. Activity calls are given as the source filed them. The calls are words filed in the database; no cut-off is given here.

Experiments:
Format in all cases: functional
[1] = test system: Escherichia coli; experiment: Antibacterial activity against Escherichia coli MTCC 82 after 24 hr by serial tube dilution method; conditions: MTCC 82, 24 h
[2] = test system: Salmonella typhi; experiment: Antibacterial activity against Salmonella enterica subsp. enterica serovar Typhi MTCC 1251 after 24 hr by serial tube dilution method; conditions: MTCC 1251, 24 h
[3] = test system: Bacillus subtilis; experiment: Antibacterial activity against Bacillus subtilis MTCC 2451 after 24 hr by serial tube dilution method; conditions: MTCC 2451, 24 h
[4] = test system: OVCAR; experiment: Cytotoxicity against Homo sapiens (human) OVCAR cells assessed as cell growth inhibition at 1 x 10^-5 M after 48 hr by SRB assay; conditions: for inhibition of growth at 10 µM: read-out: GI
[5] = test system: IMR-32; experiment: Cytotoxicity against Homo sapiens (human) IMR32 cells assessed as cell growth inhibition at 1 x 10^-5 M after 48 hr by SRB assay; conditions: for inhibition of growth at 10 µM: IMR-32, 48 h, read-out: GI
[6] = test system: PC-3; experiment: Cytotoxicity against Homo sapiens (human) PC3 cells assessed as cell growth inhibition at 1 x 10^-5 M after 48 hr by SRB assay; conditions: for inhibition of growth at 10 µM: PC-3, 48 h, read-out: GI
[7] = test system: Pseudomonas aeruginosa; experiment: Antibacterial activity against Pseudomonas aeruginosa MTCC 2642 after 24 hr by serial tube dilution method; conditions: MTCC 2642, 24 h
[8] = test system: HEp-2; experiment: Cytotoxicity against Homo sapiens (human) Hep2 cells assessed as cell growth inhibition at 1 x 10^-5 M after 48 hr by SRB assay; conditions: HEp-2, 48 h, read-out: GI
[9] = test system: Candida albicans; experiment: Antifungal activity against Candida albicans MTCC 3018 after 48 hr by serial tube dilution method; conditions: MTCC 3018, 48 h
[10] = test system: Staphylococcus aureus; experiment: Antibacterial activity against Staphylococcus aureus MTCC 96 after 24 hr by serial tube dilution method; conditions: MTCC 96, 24 h
[11] = test system: Aspergillus niger; experiment: Antifungal activity against Aspergillus niger MTCC 1344 after 48 hr by serial tube dilution method; conditions: MTCC 1344, 48 h

Structure (SMILES): COc1ccc(/C=C/C(=O)c2ccco2)cc1O
- MIC [1]: 62.5 µg/mL (≈ 256 µM)
- MIC [2]: 62.5 µg/mL (≈ 256 µM)
- MIC [3]: 62.5 µg/mL (≈ 256 µM)
- inhibition of growth at 10 µM [4]: 23%
- inhibition of growth at 10 µM [5]: 16%
- inhibition of growth at 10 µM [6]: 21%
- MIC [7]: 125 µg/mL (≈ 512 µM)
- inhibition of growth at 10 µM [8]: 19%
- MIC [9]: 250 µg/mL (≈ 1020 µM)
- MIC [10]: 31.2 µg/mL (≈ 128 µM)
- MIC [11]: 250 µg/mL (≈ 1020 µM)

Structure (SMILES): COc1ccc(/C=C/C(=O)c2ccco2)cc1OC
- MIC [1]: 15.6 µg/mL (≈ 60.4 µM)
- MIC [2]: 15.6 µg/mL (≈ 60.4 µM)
- MIC [3]: 31.2 µg/mL (≈ 121 µM)
- growth inhibition (GI) [4]: inactive
- inhibition of growth at 10 µM [5]: 33%
- inhibition of growth at 10 µM [6]: 29%
- MIC [7]: 31.2 µg/mL (≈ 121 µM)
- inhibition of growth at 10 µM [8]: 27%
- MIC [9]: 250 µg/mL (≈ 968 µM)
- MIC [10]: 31.2 µg/mL (≈ 121 µM)
- MIC [11]: 125 µg/mL (≈ 484 µM)

Structure (SMILES): O=C(/C=C/c1ccccc1)c1ccc2ccccc2c1
- MIC [1]: 500 µg/mL (≈ 1940 µM)
- inhibition of growth at 10 µM [4]: 21%
- inhibition of growth at 10 µM [5]: 19%
- inhibition of growth at 10 µM [6]: 28%
- MIC [7]: 500 µg/mL (≈ 1940 µM)
- inhibition of growth at 10 µM [8]: 27%
- MIC [10]: 250 µg/mL (≈ 968 µM)

Structure (SMILES): O=C(/C=C/c1ccc2ccccc2c1)c1ccc2ccccc2c1
- MIC [1]: 125 µg/mL (≈ 405 µM)
- MIC [3]: 125 µg/mL (≈ 405 µM)
- inhibition of growth at 10 µM [4]: 76%
- inhibition of growth at 10 µM [5]: 77%
- inhibition of growth at 10 µM [6]: 79%
- MIC [7]: 250 µg/mL (≈ 811 µM)
- inhibition of growth at 10 µM [8]: 73%
- MIC [10]: 62.5 µg/mL (≈ 203 µM)

Structure (SMILES): O=C(/C=C/c1ccc(Cl)cc1Cl)c1ccc[nH]1
- MIC [1]: 15.6 µg/mL (≈ 58.6 µM)
- MIC [2]: 15.6 µg/mL (≈ 58.6 µM)
- MIC [3]: 15.6 µg/mL (≈ 58.6 µM)
- inhibition of growth at 10 µM [4]: 13%
- growth inhibition (GI) [5]: inactive
- growth inhibition (GI) [6]: inactive
- MIC [7]: 31.2 µg/mL (≈ 117 µM)
- inhibition of growth at 10 µM [8]: 16%
- MIC [9]: 125 µg/mL (≈ 470 µM)
- MIC [10]: 7.8 µg/mL (≈ 29.3 µM)
- MIC [11]: 62.5 µg/mL (≈ 235 µM)

Structure (SMILES): COc1ccc(/C=C/C(=O)c2ccc3ccccc3c2)cc1
- inhibition of growth at 10 µM [4]: 31%
- inhibition of growth at 10 µM [5]: 36%
- inhibition of growth at 10 µM [6]: 33%
- inhibition of growth at 10 µM [8]: 29%

Structure (SMILES): O=C(/C=C/c1c(Cl)cccc1Cl)c1ccco1
- MIC [1]: 62.5 µg/mL (≈ 234 µM)
- MIC [2]: 125 µg/mL (≈ 468 µM)
- MIC [3]: 125 µg/mL (≈ 468 µM)
- growth inhibition (GI) [4]: inactive
- growth inhibition (GI) [5]: inactive
- growth inhibition (GI) [6]: inactive
- MIC [7]: 250 µg/mL (≈ 936 µM)
- inhibition of growth at 10 µM [8]: 11%
- MIC [9]: 250 µg/mL (≈ 936 µM)
- MIC [10]: 62.5 µg/mL (≈ 234 µM)
- MIC [11]: 250 µg/mL (≈ 936 µM)

Structure (SMILES): COc1ccc(OC)c(/C=C/C(=O)c2ccc3ccccc3c2)c1
- MIC [1]: 250 µg/mL (≈ 785 µM)
- MIC [2]: 250 µg/mL (≈ 785 µM)
- MIC [3]: 125 µg/mL (≈ 393 µM)
- inhibition of growth at 10 µM [4]: 52%
- inhibition of growth at 10 µM [5]: 51%
- inhibition of growth at 10 µM [6]: 49%
- inhibition of growth at 10 µM [8]: 47%
- MIC [10]: 125 µg/mL (≈ 393 µM)

Structure (SMILES): COc1cccc(/C=C/C(=O)c2ccc[nH]2)c1OC
- inhibition of growth at 10 µM [4]: 24%
- inhibition of growth at 10 µM [5]: 28%
- inhibition of growth at 10 µM [6]: 31%
- inhibition of growth at 10 µM [8]: 33%

Structure (SMILES): OC(Cn1cncn1)(Cn1cncn1)c1ccc(F)cc1F [FLUCONAZOLE]
- MIC [9]: 0.3 µg/mL (≈ 0.98 µM)
- MIC [11]: 0.2 µg/mL (≈ 0.653 µM)

Structure (SMILES): COc1ccc(/C=C/C(=O)c2ccc3ccccc3c2)cc1O
- MIC [1]: 62.5 µg/mL (≈ 205 µM)
- MIC [2]: 125 µg/mL (≈ 411 µM)
- MIC [3]: 31.2 µg/mL (≈ 103 µM)
- inhibition of growth at 10 µM [4]: 52%
- inhibition of growth at 10 µM [5]: 61%
- inhibition of growth at 10 µM [6]: 47%
- MIC [7]: 250 µg/mL (≈ 821 µM)
- inhibition of growth at 10 µM [8]: 57%
- MIC [10]: 15.6 µg/mL (≈ 51.3 µM)

Structure (SMILES): O=C(/C=C/c1cccc(Cl)c1Cl)c1ccc2ccccc2c1
- MIC [1]: 31.2 µg/mL (≈ 95.4 µM)
- MIC [2]: 62.5 µg/mL (≈ 191 µM)
- MIC [3]: 31.2 µg/mL (≈ 95.4 µM)
- inhibition of growth at 10 µM [4]: 11%
- growth inhibition (GI) [5]: inactive
- growth inhibition (GI) [6]: inactive
- MIC [7]: 62.5 µg/mL (≈ 191 µM)
- inhibition of growth at 10 µM [8]: 9%
- MIC [9]: 250 µg/mL (≈ 764 µM)
- MIC [10]: 31.2 µg/mL (≈ 95.4 µM)
- MIC [11]: 250 µg/mL (≈ 764 µM)

Structure (SMILES): COc1ccc(/C=C/C(=O)c2ccc3ccccc3c2)c(OC)c1OC
- MIC [1]: 15.6 µg/mL (≈ 44.8 µM)
- MIC [2]: 15.6 µg/mL (≈ 44.8 µM)
- MIC [3]: 3.9 µg/mL (≈ 11.2 µM)
- inhibition of growth at 10 µM [4]: 88%
- inhibition of growth at 10 µM [5]: 75%
- inhibition of growth at 10 µM [6]: 81%
- MIC [7]: 7.8 µg/mL (≈ 22.4 µM)
- inhibition of growth at 10 µM [8]: 72%
- MIC [9]: 125 µg/mL (≈ 359 µM)
- MIC [10]: 3.9 µg/mL (≈ 11.2 µM)
- MIC [11]: 62.5 µg/mL (≈ 179 µM)

Structure (SMILES): O=C(/C=C/c1ccco1)c1ccc2ccccc2c1
- MIC [2]: 500 µg/mL (≈ 2010 µM)
- MIC [3]: 250 µg/mL (≈ 1010 µM)
- growth inhibition (GI) [4]: inactive
- inhibition of growth at 10 µM [5]: 13%
- inhibition of growth at 10 µM [6]: 16%
- MIC [7]: 250 µg/mL (≈ 1010 µM)
- inhibition of growth at 10 µM [8]: 21%
- MIC [10]: 125 µg/mL (≈ 503 µM)

Structure (SMILES): COc1ccc(/C=C/C(=O)c2ccc3ccccc3c2)cc1OC
- MIC [1]: 125 µg/mL (≈ 393 µM)
- MIC [2]: 62.5 µg/mL (≈ 196 µM)
- MIC [3]: 62.5 µg/mL (≈ 196 µM)
- inhibition of growth at 10 µM [4]: 49%
- inhibition of growth at 10 µM [5]: 51%
- inhibition of growth at 10 µM [6]: 53%
- MIC [7]: 125 µg/mL (≈ 393 µM)
- inhibition of growth at 10 µM [8]: 53%
- MIC [9]: 500 µg/mL (≈ 1570 µM)
- MIC [10]: 62.5 µg/mL (≈ 196 µM)
- MIC [11]: 250 µg/mL (≈ 785 µM)
